From publication PMC9804489, “Phase 1/1b Studies of UCB0599, an Oral Inhibitor of α‐Synuclein Misfolding, Including a Randomized Study in Parkinson's Disease” (Movement Disorders, 2022)
Read-outs that look alike come from different tables or passages of the source.

Assays:
[1] = UP0078 phase 1 food/ITZ study: safety and tolerability in healthy participants
Experimental: UP0078 was a phase 1, open‐label study to evaluate the potential effect of food on the bioavailability of UCB0599 and to test the potential effect of ITZ on the disposition of UCB0599 in HPs. A randomized, two‐way crossover design with a third fixed‐treatment period was used (Fig. S2).
Participants received a single 180 mg dose of UCB0599 on three separate occasions, with a washout period of ≥7 days between doses. The first dose was administered under fasted conditions, the second under fed conditions, and the third under fasted conditions co‐administered with ITZ (200 mg once daily, days 15–22).
The study was conducted at a phase 1 unit in the United Kingdom.
The primary objectives were to assess the potential effect of food intake (standard high‐fat, high‐calorie meal) on single‐dose PK of UCB0599 and to evaluate and compare the single‐dose PK of UCB0599 in the presence or absence of ITZ. The secondary and exploratory objectives were to evaluate the safety and tolerability of UCB0599 under fasted and fed conditions, and with/without concomitant administration of ITZ; to evaluate UCB0599 metabolite plasma PK in the presence or absence of ITZ; and to assess the potential effect of food intake on the single‐dose PK of UCB0599 metabolites.
Primary PK variables were AUC0–t , AUC0–inf, C max, and t max. Primary safety variables were the incidence of TEAEs and serious TEAEs. […]

[2] = UP0030 phase 1 study: plasma pharmacokinetics of UCB0599 and its metabolites; format: in vivo, human; conditions: for AUC: read-out: AUC, GeoMean; for Cmax: read-out: C max, GeoMean
Experimental: Statistical evaluations for all three studies were performed using SAS version 9.4 (SAS, Cary, NC, USA), and PK data were analyzed using Phoenix WinNonlin software (Certara, Princeton, NJ, USA). Continuous variables were summarized with number of participants, mean, standard deviation, median, minimum and maximum, and confidence intervals (CI) for the mean. Categorical variables were summarized with frequency counts and percentages.

[3] = UP0030 phase 1 SAD/MAD study: safety and tolerability in healthy participants
Experimental: Part 1 (Fig. S1A) was a randomized, subject‐ and investigator‐blind, placebo‐controlled study in healthy older participants (HOP). Part 2 (Fig. S1B) was an open‐label, two‐way crossover study in HPs.
Part 1 included five cohorts (1, 2, 1b, 2b, and 3) and evaluated SADs (SAD: 90, 180, 360, and 450 mg) and MADs of UCB0599 (MAD: 180 and 360 mg/day). […] The first two doses were administered as a two‐way crossover (under fasting/fed or fed/fasting conditions), and the third dose was administered to both arms under fasted conditions with 200 mg of ITZ (once daily, days −3 to 2) to assess potential drug–drug interactions.
Eligible participants were aged ≥18 years (part 1, 55–75 years for HOP; part 2, <55 years) with a body mass index (BMI) of 18–32 kg/m^2 and a body weight of ≥50 kg. The study was conducted at a phase 1 unit in Germany.
The primary objective was to evaluate the safety and tolerability of UCB0599 after the administration of single and multiple doses in HOP. The secondary objectives are to evaluate the PK of UCB0599 and its desmethyl and N‐oxide metabolites after the administration of single and multiple doses in HOP and to evaluate the PK, safety, and tolerability of UCB0599 in HPs when given a single dose alone, with food or with ITZ.
Safety variables included the incidence of any treatment‐emergent adverse event (TEAE), changes in vital signs, laboratory assessments, 12‐lead electrocardiogram (ECG) and Holter ECG assessment, and the Columbia Suicide Severity Rating Scale (C‐SSRS). PK variables included maximum plasma concentration (C max), time of maximum concentration (t max), AUC (area under the plasma concentration–time curve) from time 0 to last quantifiable concentration (AUC0–t ), AUC from time 0 to infinity (AUC0–inf), apparent total body clearance, apparent volume of distribution, and apparent elimination half‐life (t 1/2).

[4] = human, plasma, oral, UP0030 single dose 90 mg
[5] = human, plasma, oral, UP0030 single dose 450 mg
[6] = UP0030, UCB0599 180 mg/day, n=17
[7] = UP0030 part 2, fasted UCB0599 360 mg, n=3
[8] = UP0030 part 2, fed UCB0599 360 mg, n=3

SMILES: CCC(C)n1ncn(-c2ccc(N3CCN(c4ccc(OCC5COC(Cn6cncn6)(c6ccc(Cl)cc6Cl)O5)cc4)CC3)cc2)c1=O (stereo not drawn) [ITZ, itraconazole, reference compound]
- TEAE considered related to the substance [1]: 9.1%

SMILES: CCCC[C@H](Cc1c[nH]c2ccccc12)NC(=O)c1cnc(N2CCN(C)CC2)s1 [UCB0599]
- Plasma steady‐state concentration achieved, on average ([2]; UP0030, 180 mg/day): ≤ 7 days
- Tmax ([2]; human, plasma, oral, UP0030, UCB0599 180 mg/day, read-out: Median t max after multiple doses): 1.5 to 3 h
- Tmax ([2]; human, plasma, oral, UP0030 single ascending doses 90–450 mg, read-out: t max range): 1.5 to 2 h
- half-life ([2]; human, plasma, oral, UP0030 single ascending doses of UCB0599, across dose groups, read-out: Apparent elimination half‐life, GeoMean range): 10.6 to 13 h
- AUC [2, 4]: 3220 ng·h/mL
- Cmax [2, 4]: 374 ng/mL
- AUC [2, 5]: 17000 ng·h/mL
- Cmax [2, 5]: 1810 ng/mL
- Hypersensitivity reactions ([3]; UP0030): 2 n
- Treatment‐related patterns for vital signs, ECG tracings, or laboratory findings ([3]; UP0030): no discernible UCB0599 treatment‐related patterns
- TEAE Diarrhea ([3]; UP0030, UCB0599 90 mg, n=9): 0 n (%) […]
- TEAE Drug hypersensitivity ([3]; UP0030, UCB0599 90 mg, n=9): 0 n (%) […]
- TEAE Fatigue ([3]; UP0030, UCB0599 90 mg, n=9): 0 n (%) […]
- TEAE Nasopharyngitis ([3]; UP0030, UCB0599 90 mg, n=9): 0 n (%) […]
- TEAE Diarrhea ([3]; UP0030, UCB0599 180 mg, n=17): 0 n (%) […]
- TEAE Drug hypersensitivity ([3]; UP0030, UCB0599 180 mg, n=17): 0 n (%) […]
- TEAE Fatigue ([3]; UP0030, UCB0599 180 mg, n=17): 0 n (%) […]
- TEAE Headache ([3]; UP0030, UCB0599 180 mg, n=17): 0 n (%) […]
- TEAE Myalgia ([3]; UP0030, UCB0599 180 mg, n=17): 0 n (%) […]
- TEAE Nasopharyngitis ([3]; UP0030, UCB0599 180 mg, n=17): 0 n (%) […]
- TEAE Postlumbar puncture syndrome ([3]; UP0030, UCB0599 180 mg, n=17): 0 n (%) […]
- TEAE Diarrhea [3, 6]: 0 n (%) […]
- TEAE Fatigue [3, 6]: 0 n (%) […]
- TEAE Postlumbar puncture syndrome [3, 6]: 0 n (%) […]
- TEAE Presyncope [3, 6]: 0 n (%) […]
- TEAE Drug hypersensitivity ([3]; UP0030, UCB0599 360 mg, n=18): 0 n (%) […]
- TEAE Myalgia ([3]; UP0030, UCB0599 360 mg, n=18): 0 n (%) […]
- TEAE Nasopharyngitis ([3]; UP0030, UCB0599 360 mg, n=18): 0 n (%) […]
- TEAE Presyncope ([3]; UP0030, UCB0599 360 mg, n=18): 0 n (%) […]
- TEAE Drug hypersensitivity ([3]; UP0030, UCB0599 450 mg, n=9): 0 n (%) […]
- TEAE Fatigue ([3]; UP0030, UCB0599 450 mg, n=9): 0 n (%) […]
- TEAE Myalgia ([3]; UP0030, UCB0599 450 mg, n=9): 0 n (%) […]
- TEAE Presyncope ([3]; UP0030, UCB0599 450 mg, n=9): 0 n (%) […]
- TEAE Puncture site pain ([3]; UP0030, UCB0599 450 mg, n=9): 0 n (%) […]
- Time to resolution of HSRs ([3]; UP0030, after oral antihistamines): ≤ 3 days
- Participants reporting serious TEAEs ([3]; UP0030 part 1): 4.4%
- Deaths ([3]; UP0030 part 1, all UCB0599 N=45): 0 n (%) […]
- Discontinuations due to drug hypersensitivity ([3]; UP0030 part 1, total UCB0599): 2 participants
- Participants reporting TEAEs ([3]; UP0030 part 1, total UCB0599): 66.7%
- Participants reporting severe TEAEs ([3]; UP0030 part 1, total UCB0599): 6.7%
- Participants who discontinued due to TEAEs ([3]; UP0030 part 1, total UCB0599): 11.1%
- Any TEAEs [3, 7]: 0 n (%) […]
- Deaths [3, 7]: 0 n (%) […]
- Discontinuations due to TEAEs [3, 7]: 0 n (%) […]
- Drug‐related TEAEs [3, 7]: 0 n (%) […]
- Serious TEAEs [3, 7]: 0 n (%) […]
- Severe TEAEs [3, 7]: 0 n (%) […]
- Participants reporting TEAEs ([3]; UP0030 part 2, fed UCB0599 360 mg): 33.3%
- Deaths [3, 8]: 0 n (%) […]
- Discontinuations due to TEAEs [3, 8]: 0 n (%) […]
- Drug‐related TEAEs [3, 8]: 0 n (%) […]
- Serious TEAEs [3, 8]: 0 n (%) […]
- Severe TEAEs [3, 8]: 0 n (%) […]
